Measured values published in the NIST ThermoML archive (doi:10.1016/j.tca.2018.11.020).
± gives the expanded uncertainty stated by the source.

Legend:
[1] = Adiabatic calorimetry
[2] = Molar enthalpy of transition or fusion; details: Crystal; Adiabatic calorimetry
[3] = molar heat capacity at constant pressure; details: 101.33 kPa, Vacuum adiabatic calorimetry

CC(C)O [propan-2-ol]
[1]
Details | Glass transition temperature [°C] | Triple point temperature [K]
Crystal | – | 184.7 ± 0.4
Glass | -156.0 ± 0.4 | –

Details | Molar enthalpy of transition or fusion [kcal/mol]
[2] | 1.27 ± 0.0239

[3]
Details | molar heat capacity at constant pressure [J/K/mol]
85 K, Glass | 51.12 ± 0.91
90 K, Glass | 53.51 ± 0.92
95 K, Glass | 56.01 ± 0.92
100 K, Crystal | 54.18 ± 0.92
100 K, Glass | 58.63 ± 0.92
105 K, Crystal | 56.19 ± 0.92
105 K, Glass | 61.36 ± 0.92
110 K, Crystal | 58.21 ± 0.92
110 K, Glass | 64.24 ± 0.92
115 K, Crystal | 60.23 ± 0.92
120 K, Crystal | 62.27 ± 0.92
120 K, Metastable liquid | 103.93 ± 0.93
125 K, Crystal | 64.31 ± 0.92
125 K, Metastable liquid | 103.76 ± 0.93
130 K, Crystal | 66.36 ± 0.92
130 K, Metastable liquid | 103.51 ± 0.93
135 K, Crystal | 68.41 ± 0.92
135 K, Metastable liquid | 103.26 ± 0.93
140 K, Crystal | 70.47 ± 0.92
145 K, Crystal | 72.55 ± 0.92
150 K, Crystal | 74.62 ± 0.92
155 K, Crystal | 76.7 ± 0.92
160 K, Crystal | 78.79 ± 0.93
165 K, Crystal | 80.88 ± 0.93
